Assay results: ChEMBL document CHEMBL1201861, “Genomics of Drug Sensitity in Cancer screening data, Wellcome Trust Sanger Institute”

Tests used:
Assay in all cases: cells
Conditions in all cases: Homo sapiens
SF-126 = assay type: functional, cell-based;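 note: growth inhibition of human SF126 cells, read out with a cell viability assay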
Description: SANGER: Inhibition of human SF126 cell growth in a cell viability assay.

DEL = assay type: functional, cell-based;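 note: growth inhibition of the human DEL cell line, read out with a cell viability assay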
Description: SANGER: Inhibition of human DEL cell growth in a cell viability assay.

NCI-H2126 = assay type: functional, cell-based;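 note: growth inhibition of the cancer cell line, determined with a cell viability readout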
Description: SANGER: Inhibition of human NCI-H2126 cell growth in a cell viability assay.

NCI-H446 = assay type: functional, cell-based;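 note: growth inhibition of NCI-H446 cells determined by a cell viability assay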
Description: SANGER: Inhibition of human NCI-H446 cell growth in a cell viability assay.

NB5 = assay type: functional, cell-based;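 note: growth inhibition of NB5 cells, read out as cell viability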
Description: SANGER: Inhibition of human NB5 cell growth in a cell viability assay.

NB13 = assay type: functional, cell-based;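 note: cell viability readout measuring growth inhibition of human NB13 cells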
Description: SANGER: Inhibition of human NB13 cell growth in a cell viability assay.

KGN = assay type: functional, cell-based;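 note: growth inhibition of KGN cells, read out with a cell viability assay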
Description: SANGER: Inhibition of human KGN cell growth in a cell viability assay.

Calu-6 = assay type: functional, cell-based;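 note: growth of human Calu-6 cells, read out by a cell viability assay, IC50 marking inhibition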
Description: SANGER: Inhibition of human Calu-6 cell growth in a cell viability assay.

LU-139 = assay type: functional, cell-based
Description: SANGER: Inhibition of human LU-139 cell growth in a cell viability assay.

IST-MEL1 = assay type: functional, cell-based;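 note: growth inhibition of the cell line, read out with a cell viability assay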
Description: SANGER: Inhibition of human IST-MEL1 cell growth in a cell viability assay.

ES8 = assay type: functional, cell-based;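 note: growth inhibition of human ES8 cells, read out with a cell viability assay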
Description: SANGER: Inhibition of human ES8 cell growth in a cell viability assay.

BB65-RCC = assay type: functional, cell-based;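 note: growth inhibition of the cell line, measured with a cell viability assay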
Description: SANGER: Inhibition of human BB65-RCC cell growth in a cell viability assay.

ES6 = assay type: functional, cell-based;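 note: growth inhibition of human ES6 cells, read out with a cell viability assay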
Description: SANGER: Inhibition of human ES6 cell growth in a cell viability assay.

GT3TKB = assay type: functional, cell-based;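 note: growth inhibition of the cell line, read out with a cell viability assay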
Description: SANGER: Inhibition of human GT3TKB cell growth in a cell viability assay.

TK-10 = assay type: functional, cell-based;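 note: growth inhibition of TK-10 cells, read out in a cell viability assay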
Description: SANGER: Inhibition of human TK10 cell growth in a cell viability assay.

MZ7-mel = assay type: functional, cell-based;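 note: growth inhibition of human MZ7-mel cells, measured by a cell viability assay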
Description: SANGER: Inhibition of human MZ7-mel cell growth in a cell viability assay.

EW-24 = assay type: functional, cell-based;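 note: human EW-24 cancer cell line, growth inhibition read out via a cell viability assay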
Description: SANGER: Inhibition of human EW-24 cell growth in a cell viability assay.

NCI-H1299 = assay type: functional, cell-based;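 note: growth inhibition of human NCI-H1299 cells, read out by a cell viability assay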
Description: SANGER: Inhibition of human NCI-H1299 cell growth in a cell viability assay.

RXF 393 = assay type: functional, cell-based;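 note: growth inhibition of human RXF 393 cells, read out with a cell viability assay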
Description: SANGER: Inhibition of human RXF393 cell growth in a cell viability assay.

D-502MG = assay type: functional, cell-based
Description: SANGER: Inhibition of human D-502MG cell growth in a cell viability assay.

JVM-3 = assay type: functional, cell-based;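 note: growth inhibition of human JVM-3 cells, read out with a cell viability assay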
Description: SANGER: Inhibition of human JVM-3 cell growth in a cell viability assay.

NCI-H747 = assay type: functional, cell-based;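 note: growth inhibition of human NCI-H747 cells, read out by a cell viability assay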
Description: SANGER: Inhibition of human NCI-H747 cell growth in a cell viability assay.

SNU1 = assay type: functional, cell-based;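 note: growth inhibition of human NCI-SNU-1 cells, measured with a cell viability assay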
Description: SANGER: Inhibition of human NCI-SNU-1 cell growth in a cell viability assay.

DMS-114 = assay type: functional, cell-based
KP-N-YS = assay type: functional, cell-based;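 note: cell viability assay measuring inhibition of cell line growth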
Description: SANGER: Inhibition of human KP-N-YS cell growth in a cell viability assay.

HOP-62 = assay type: functional, cell-based;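 note: cell growth inhibition determined with a viability assay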
Description: SANGER: Inhibition of human HOP-62 cell growth in a cell viability assay.

MS-1 = assay type: functional, cell-based
Description: SANGER: Inhibition of human MS-1 cell growth in a cell viability assay.

HCC1187 = assay type: functional, cell-based;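 note: growth inhibition of HCC1187 cells, read out with a cell viability assay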
Description: SANGER: Inhibition of human HCC1187 cell growth in a cell viability assay.

Becker = assay type: functional, cell-based;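 note: growth inhibition of Becker cells, read out with a cell viability assay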
Description: SANGER: Inhibition of human Becker cell growth in a cell viability assay.

no-10 = assay type: functional, cell-based;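 note: growth inhibition of no-10 cells, read out with a cell viability assay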
Description: SANGER: Inhibition of human no-10 cell growth in a cell viability assay.

A3-KAW = assay type: functional, cell-based;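 note: growth inhibition of human A3-KAW cells, read out with a cell viability assay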
Description: SANGER: Inhibition of human A3-KAW cell growth in a cell viability assay.

MZ1-PC = assay type: functional, cell-based;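 note: cell viability assay measuring growth inhibition of human MZ1-PC cells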
Description: SANGER: Inhibition of human MZ1-PC cell growth in a cell viability assay.

NCI-H1770 = assay type: functional, cell-based;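 note: growth inhibition of NCI-H1770 cells determined with a viability readout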
Description: SANGER: Inhibition of human NCI-H1770 cell growth in a cell viability assay.

HDLM-2 = assay type: functional, cell-based;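 note: cell viability assay measuring suppression of HDLM-2 proliferation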
Description: SANGER: Inhibition of human HDLM-2 cell growth in a cell viability assay.

HCC2218 = assay type: functional, cell-based;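 note: cell viability assay read-out, with IC50 given as the concentration that inhibits growth of the cell line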
Description: SANGER: Inhibition of human HCC2218 cell growth in a cell viability assay.

DJM-1 = assay type: functional, cell-based;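 note: growth inhibition of human DJM-1 cells, read out by a cell viability assay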
Description: SANGER: Inhibition of human DJM-1 cell growth in a cell viability assay.

SK-N-DZ = assay type: functional, cell-based;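 note: growth inhibition of the cancer cell line, read out through a viability assay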
Description: SANGER: Inhibition of human SK-N-DZ cell growth in a cell viability assay.

C8166 = assay type: functional, cell-based;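 note: growth inhibition of human C8166 cells measured by a cell viability assay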
Description: SANGER: Inhibition of human C8166 cell growth in a cell viability assay.

A388 = assay type: functional, cell-based;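 note: growth inhibition of human A388 cells, read out with a cell viability assay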
Description: SANGER: Inhibition of human A388 cell growth in a cell viability assay.

MHH-PREB-1 = assay type: functional, cell-based;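 note: cell viability assay measuring inhibition of proliferation of human MHH-PREB-1 cells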
Description: SANGER: Inhibition of human MHH-PREB-1 cell growth in a cell viability assay.

TE-11 = assay type: functional, cell-based;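 note: growth inhibition of human TE-11 cells, read out by a cell viability assay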
Description: SANGER: Inhibition of human TE-11 cell growth in a cell viability assay.

RPMI-8866 = assay type: functional, cell-based
Description: SANGER: Inhibition of human RPMI-8866 cell growth in a cell viability assay.

EM-2 = assay type: functional, cell-based;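 note: growth inhibition of EM-2 cells, read out with a cell viability assay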
Description: SANGER: Inhibition of human EM-2 cell growth in a cell viability assay.

RCC10RGB = assay type: functional, cell-based;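 note: growth inhibition of human RCC10RGB cells, read out by a cell viability assay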
Description: SANGER: Inhibition of human RCC10RGB cell growth in a cell viability assay.

HC-1 = assay type: functional, cell-based;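 note: growth inhibition of HC-1 cells measured by a cell viability assay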
Description: SANGER: Inhibition of human HC-1 cell growth in a cell viability assay.

IA-LM = assay type: functional, cell-based;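 note: cell viability assay measuring growth inhibition of human IA-LM cells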
Description: SANGER: Inhibition of human IA-LM cell growth in a cell viability assay.

MV4-11 = assay type: functional, cell-based, MV-4-11;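 note: cell viability readout measuring growth inhibition of human MV-4-11 cells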
Description: SANGER: Inhibition of human MV-4-11 cell growth in a cell viability assay.

ES4 = assay type: functional, cell-based;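 note: growth inhibition of human ES4 cells, read out by a cell viability assay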
Description: SANGER: Inhibition of human ES4 cell growth in a cell viability assay.

TE-12 = assay type: functional, cell-based;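 note: growth inhibition of TE-12 cells, read out by a cell viability assay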
Description: SANGER: Inhibition of human TE-12 cell growth in a cell viability assay.

SK-MEL-2 = assay type: functional, cell-based;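 note: growth inhibition of human SK-MEL-2 cells measured with a cell viability assay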
Description: SANGER: Inhibition of human SK-MEL-2 cell growth in a cell viability assay.

L-363 = assay type: functional, cell-based
Description: SANGER: Inhibition of human L-363 cell growth in a cell viability assay.

LAMA-84 = assay type: functional, cell-based;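 note: growth inhibition of LAMA-84 cells, read out with a cell viability assay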
Description: SANGER: Inhibition of human LAMA-84 cell growth in a cell viability assay.

SBC-1 = assay type: functional, cell-based;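 note: cell viability assay measuring growth inhibition of the SBC-1 cell line, IC50 being the concentration that halves growth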
Description: SANGER: Inhibition of human SBC-1 cell growth in a cell viability assay.

NB69 = assay type: functional, cell-based;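 note: growth inhibition of NB69 cells, determined by a cell viability assay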
Description: SANGER: Inhibition of human NB69 cell growth in a cell viability assay.

A704 = assay type: functional, cell-based;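 note: growth inhibition of human A704 cells, read out with a cell viability assay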
Description: SANGER: Inhibition of human A704 cell growth in a cell viability assay.

PSN1 = assay type: functional, cell-based
Description: SANGER: Inhibition of human PSN1 cell growth in a cell viability assay.

ES3 = assay type: functional, cell-based
Description: SANGER: Inhibition of human ES3 cell growth in a cell viability assay.

ES7 = assay type: functional, cell-based
Description: SANGER: Inhibition of human ES7 cell growth in a cell viability assay.

NCI-H23 = assay type: functional, cell-based
Description: SANGER: Inhibition of human NCI-H23 cell growth in a cell viability assay.

MC116 = assay type: functional, cell-based
Description: SANGER: Inhibition of human MC116 cell growth in a cell viability assay.

HEL = assay type: functional, cell-based
Description: SANGER: Inhibition of human HEL cell growth in a cell viability assay.

NCI-H82 = assay type: functional, cell-based
Description: SANGER: Inhibition of human NCI-H82 cell growth in a cell viability assay.

GCIY = assay type: functional, cell-based
Description: SANGER: Inhibition of human GCIY cell growth in a cell viability assay.

MLMA = assay type: functional, cell-based
Description: SANGER: Inhibition of human MLMA cell growth in a cell viability assay.

NCI-H720 = assay type: functional, cell-based
Description: SANGER: Inhibition of human NCI-H720 cell growth in a cell viability assay.

NOS-1 = assay type: functional, cell-based
Description: SANGER: Inhibition of human NOS-1 cell growth in a cell viability assay.

CC[C@]1(O)C[C@@H]2CN(CCc3c([nH]c4ccccc34)[C@@](C(=O)OC)(c3cc4c(cc3OC)N(C)[C@H]3[C@@](O)(C(=O)OC)[C@H](OC(C)=O)[C@]5(CC)C=CCN6CC[C@]43[C@@H]65)C2)C1 [VINBLASTINE]
IC50 (SF-126): 21.9 nM | IC50 (DEL): 2.16 nM | IC50 (NCI-H2126): 25.9 nM | IC50 (NCI-H446): 2.12 nM | IC50 (NB5): 15.7 nM | IC50 (NB13): 3.27 nM | IC50 (KGN): 33.3 nM | IC50 (Calu-6): > 100 nM | IC50 (LU-139): 14.1 nM | IC50 (IST-MEL1): 4.53 nM | IC50 (ES8): 3.24 nM | IC50 (BB65-RCC): 20.7 nM | IC50 (ES6): > 100 nM | IC50 (GT3TKB): 1.92 nM | IC50 (TK-10): 42.4 nM | IC50 (MZ7-mel): 11.1 nM | IC50 (EW-24): 18 nM | IC50 (NCI-H1299): 16.4 nM | IC50 (RXF 393): 1.44 nM | IC50 (D-502MG): 23.5 nM | IC50 (JVM-3): 1.7 nM | IC50 (NCI-H747): 81.2 nM | IC50 (SNU1): 1.62 nM | IC50 (DMS-114): 20.9 nM | IC50 (KP-N-YS): 22.9 nM | IC50 (HOP-62): > 100 nM | IC50 (MS-1): 30.8 nM | IC50 (HCC1187): 2.75 nM | IC50 (Becker): 1.13 nM | IC50 (no-10): > 100 nM | IC50 (A3-KAW): 4.32 nM | IC50 (MZ1-PC): 24.2 nM | IC50 (NCI-H1770): 28.5 nM | IC50 (HDLM-2): > 100 nM | IC50 (HCC2218): 79.3 nM | IC50 (DJM-1): > 100 nM | IC50 (SK-N-DZ): 37.4 nM | IC50 (C8166): 27 nM | IC50 (A388): 6.91 nM | IC50 (MHH-PREB-1): 1.49 nM | IC50 (TE-11): 5.13 nM | IC50 (RPMI-8866): 1.97 nM | IC50 (EM-2): 5.32 nM | IC50 (RCC10RGB): > 100 nM | IC50 (HC-1): 4.21 nM | IC50 (IA-LM): 68.6 nM | IC50 (MV4-11): 2.81 nM | IC50 (ES4): 13.8 nM | IC50 (TE-12): > 100 nM | IC50 (SK-MEL-2): 53.3 nM | IC50 (L-363): 6 nM | IC50 (LAMA-84): 7.01 nM | IC50 (SBC-1): 8.1 nM | IC50 (NB69): 5.73 nM | IC50 (A704): > 100 nM | IC50 (PSN1): 1.25 nM | IC50 (ES3): 2.77 nM | IC50 (ES7): 5.75 nM | IC50 (NCI-H23): 5.71 nM | IC50 (MC116): 7.95 nM | IC50 (HEL): 32.8 nM | IC50 (NCI-H82): > 100 nM | IC50 (GCIY): 49.7 nM | IC50 (MLMA): 4.65 nM | IC50 (NCI-H720): 6.88 nM | IC50 (NOS-1): 40.9 nM
